Test results published in patent US9962364B2, “Wound healing accelerator” (priority 2012, dated 2018).

Tested on: mouse-derived 3T3-L1 fibroblasts
Test: Cell growth of mouse fibroblasts by MTT assay after treating for one minute (Tests 1, 2, 4)
Format: cell-based
Settings: treatment for 1 minute, then 24 hours of culture, versus physiological saline control
Method: Specifically, after 20 hours of culture, 10 μl of MTT reagent (from Trevigen Inc.) was added to each well and the cells were further cultured for 4 hours under conditions of 37° C. and 5% CO2. After the culture, 100 μl of the Detergent Reagent (Trevigen Inc.) was each added and the cells were left in the dark overnight at room temperature. The absorbance at 595 nm was then determined using a microplate reader (FilterMaxTM F5 Multi-Mode Microplate Reader, Molecular Devices, LLC.). […] The absorbance of the control group in Test 1 was 0.289±0.016. Gallic acid (from Tokyo Chemical Industry Co., Ltd.), caffeic acid (from Tokyo Chemical Industry Co., Ltd.), (+)-catechin (from Tokyo Chemical Industry Co., Ltd.) and chlorogenic acid (from Sigma-Aldrich Co. LLC.) were assayed. […] The absorbance of the control group in Test 2 was 0.196±0.011. Green tea extract (from MARUZEN PHARMACEUTICALS CO., LTD.) was assayed. […] The absorbance of the control group in Test 4 was 0.276±0.010.

In the case of `O=C(O)c1cc(O)c(O)c(O)c1` [gallic acid], the “growth of fibroblasts (extent of cell growth by MTT assay)” value is reported as “no growth of fibroblasts was observed”.
